The text below walks through data of PMC3665828 (PLoS ONE, 2013).

Series [1] concerns angiotensin-generating proteases of immobilized human plasma proteins. Description: Incubation of immobilized human plasma proteins with ANG-1-10 in the presence of protease inhibitors (SRM-MS). In kind it is biochemical. The procedure: The control was incubated with immobilized plasma proteins in the absence of inhibitors. The incubation with immobilized plasma proteins was carried out as described in “Incubation of immobilized plasma proteins”. The incubation was started by addition of ANG-1-10 to a final concentration of 10^−5 M to the immobilized plasma proteins.
The reaction products were analyzed by SRM-MS after 6 h (Figure S6).
Supplementary file pone.0064027.s006.tif: Figure S6 Processing of ANG-1-10 by immobilized human plasma proteases in the presence and abscence of protease inhibitors. […] Right y-axis: AUC of ANG-2-10 and ANG-3-10 after incubation in presence of EDTA. (TIF) Click here for additional data file.

The target in series [2] is recombinant human aminopeptidase N (APN) (Homo sapiens, UniProt P15144). Description: Incubation of angiotensin peptides with recombinant aminopeptidase N (MALDI-MS). The note with it: for Cleavage products generated from the substrate by recombinant aminopeptidase N (APN): substrate 10^−5 M in HPLC-grade water, 0.25 µg recombinant human APN per 100 µl, reaction products detected by MALDI-MS. The procedure:
(§1) At defined incubation times aliquots (10 µl) were taken from the reaction mixtures. Reaction was stopped by addition of formic acid adjusting a final concentration of 0.2% (v/v) formic acid/HPLC-grade water. Samples were analyzed by MALDI-MS (Reflex IV, Bruker) using DHB as matrix.
APN is a protease that is known to cleave ANG-2-8 between the Arg2-Val3 in vitro [22] and in vivo [23], [24]. Thus it is a potential protease for the generation of ANG-3-10.

A further series concerns the target recombinant human ACE-1 (Homo sapiens, UniProt P12821). Kind of series: Incubation of angiotensin peptides with recombinant ACE-1 (MALDI-MS). The settings on record: peptide 10^−5 M, 0.25 µg recombinant human ACE-1, MALDI-MS after 8 h. The procedure: as §1
It is known that ACE-1 generates ANG-1-8 by removal of the last two C-terminal amino acids (His9-Leu10) of ANG-1-10. […] The reaction products were analyzed by MALDI-MS (Figure S7).
Supplementary file pone.0064027.s007.tif: Figure S7 Processing of angiotensin peptides by recombinant ACE-1. […] ACE-1 was incubated with A) ANG-1-10, B) ANG-2-10, C) ANG-3-10, D) ANG-4-10, E) ANG-5-10. Reaction products were analyzed by MALDI-MS after an incubation time of 8 h. MALDI-MS-Signals which were assigned as angiotensin peptides are marked by arrows. (TIF) Click here for additional data file.

Series [3] concerns immobilized human plasma proteins. Kind of series: Incubation of angiotensin peptides with immobilized human plasma proteins. In kind it is in vitro ADME. The procedure: For incubation experiments human venous citrate blood (ratio 1∶9, blood to sodium citrate 3,13% (Eifelfango)) was obtained by catheterization from the cubital vein of a healthy volunteer (blood pressure: normal, <120/80 mmHg).
Analysis of the reaction by SRM was performed on a LC-ESI-QQQ-MS system. Exoproteolytic processing of these angiotensin peptides requires the presence of plasma proteases which are able to cognate and cleave the intermediate angiotensin peptides. […] When ANG-5-10 was incubated in presence of human immobilized plasma proteins time the dependent generation of ANG-6-10 was detected. After an incubation period of 8 h nearly no angiotensin peptides were detected in any of the reaction mixtures.
Dry Sepharosebeads® were swollen in 10 ml 0.1 mM hydrochloric acid/ HPLC (high pressure liquid chromatography)-grade water for 30 min on a rotating shaker. Subsequently they were washed repeatedly with HPLC-grade water (Lichrosolve, Merck). Afterwards Sepharosebeads® were equilibrated by multiple washing steps with protein coupling buffer (100 mM NaHCO3, 500 mM NaCl, pH 8,3). For protein immobilization plasma samples with a volume of 40 µl were mixed with coupling buffer in a ratio of 1:6 and mixed with the prepared Sepharosebeads® followed by incubation for 2h on a rotating shaker (room temperature). As a control heat inactivated plasma (boiled for 5 min) was immobilized. A volume of 40 µl swollen Sepharosebeads® was used per sample. After protein immobilization the Sepharosebeads® were washed three times with HPLC-grade water. Free binding sites of the Sepharosebeads® were saturated by incubation with blocking buffer (100 mM NaHCO3,500 mM NaCl, pH 8,3, 1 M Glycine, pH 8,3) for 2h on a rotating shaker (room temperature).

Series [4] has as its system non-immobilized human plasma.
Procedure: From this blood sample an aliquot of 10 ml was saved for the incubation experiments. The rest of the blood sample was immediately mixed with protease inhibitor cocktail (including 2 mM AEBSF, 0.3 µM aprotinin, 130 µM bestatin, 1 mM EDTA, 14 µM E-64 and 1 µM leupeptin (Sigma-Aldrich)) in a ratio of 1∶50.
For incubation of non-immobilized plasma a reaction volume of 200 µl non-immobilized undiluted and diluted plasma (1∶100 in HPLC-grade water) was used per sample. Incubation was started by addition of ANG-1-10 to a final concentration of 10^−5 M. Incubation was carried out at 37°C on a rotating shaker. As a control 200 µl of a 10^−5 M ANG-1-10 solution without plasma was incubated under the same conditions.
The reaction products derived from the incubation of non-immobilized plasma proteins were desalted by solid phase extraction (Hydophilic lipophilic balance (HLB) µElution plate, Waters). The HLB material was equilibrated by three washing steps with 0.2% formic acid/HPLC-grade water by centrifugation of the plate for 1 min with 500×g. Next, the sample was applied to the HLB material and centrifuged for 2 min with 200×g. The flow-through was discarded and unbound molecules were removed by washing the HLB material 3 times with 0.2% formic acid/HPLC-grade water by centrifugation of the plate for 2 min with 500×g. […]
The test system of series [5] is immobilized mouse plasma proteins.
Procedure: (§2) Heparinized (10 IU/ml) mouse and rat blood (200 µl) was obtained from the caudal vein. Plasma was isolated from all blood samples by centrifugation (4–16 K, Sigma) 4000×g for 15 min.
(§3) For the immobilization of plasma proteins CNBr-activated Sepharosebeads® 6MB (GE Healthcare) were used. Protein immobilization was perfomed as described in the product information sheet for CNBr-activated Sepharosebeads® (Sigma Aldrich) except for modifications described in the supporting information part “immobilization of plasma proteins” (Methods S1).
Incubation of immobilized plasma proteins and the control samples (glycine derivatized Sepharosebeads® without immobilized proteins and heat inactivated immobilized plasma proteins for the incubation with ANG-1-10) was started by addition of the individual angiotensin peptides (final concentration of 10^−5 M, solved in HPLC-grade water, Lichrosolve, Merck) to the beads. Incubation was carried out at 37°C on a rotating shaker. […]
To investigate the processing of ANG-1-10 by human plasma proteases we used a mass spectrometry based enzyme screening (MES) system [20]. Therefore immobilized murine and human plasma proteins were incubated with ANG-1-10 and the reaction products were analyzed by mass spectrometry. […]
ANG-1-10 (10^−5 M) was incubated with immobilized mouse plasma proteins. Reaction products were detected by MALDI-MS after 0 h, 3 h, 4 h and 8 h. […]
Series [6] relates to immobilized rat plasma proteins.
Procedure: as §2, §3
Incubation of immobilized plasma proteins and the control samples (glycine derivatized Sepharosebeads® without immobilized proteins and heat inactivated immobilized plasma proteins for the incubation with ANG-1-10) was started by addition of the individual angiotensin peptides (final concentration of 10^−5 M, solved in HPLC-grade water, Lichrosolve, Merck) to the beads. Incubation was carried out at 37°C on a rotating shaker. The final reaction volume of the samples was 30 µl.
Identification of the reaction products was done by comparison of the m/z values of the peaks in the mass spectra with the theoretical m/z values (Table S2) of possible angiotensin peptide products.
ANG-1-10 (10^−5 M) was incubated with immobilized rat plasma proteins. Reaction products were detected by MALDI-MS after 0 h, 1 h, 3 h and 8 h.
Series [7] is described as follows: immobilized human plasma proteins (CNBr-activated Sepharosebeads). The note with it: 37°C, up to 24 h.
The subject of series [8] is angiotensin converting enzyme-1 (ACE-1). Kind of series: 0.25 µg recombinant human ACE-1 in 100 µl angiotensin solution. The note with it: up to 8 h.
Series [9] concerns recombinant human aminopeptidase N (APN). Description: 0.25 µg recombinant human aminopeptidase N in 100 µl angiotensin solution. The note with it: up to 24 h.
The subject of series [10] is anti ANG-1-10 antibody (rabbit polyclonal). The note with it: rabbit polyclonal antibody of the kit; ref Fluorescent EIA Kit, phoenix pharmaceuticals; cited from earlier work. The procedure:
The RP-HPLC plasma peptide fractionations corresponding to the retention times of the synthetic angiotensin peptides were analyzed by an immuno-fluorescence assay that was originally manufactured for the quantification of ANG-1-10.

Another series in a line: rat blood. The settings on record: cited from earlier work.
In the next series the test system is APN. Kind of series: in vitro and in vivo. The note with it: cited from earlier work.
The mark [11] stands for this setting: ANG-1-10 10^−5 M, immobilized human plasma proteins, 200 µM AEBSF, 50 µM antipain, 150 µM bestatin, 10 µM captopril, 100 µM chymostatin, 100 µM EDTA, SRM-MS after 6 h, mean ± SEM, n = 3.
Where [12] appears, read: ANG-1-10 10^−5 M, immobilized human plasma proteins, 200 µM AEBSF, 50 µM antipain, 150 µM bestatin, 100 µM EDTA, SRM-MS after 6 h, mean ± SEM, n = 3.
Where [13] appears, read: substrate 10^−5 M, immobilized human plasma proteins, 37°C, SRM-MS (LC-ESI-QQQ-MS) / MALDI-MS.

“Also recorded” adds a separate entry of the source. Like-named read-outs stand apart in the source and are kept apart here. Starred links: 1 amine or outer side, 2 acyl side, 3 side chain; linkers in the order of their positions; H or OH if unused. Residues, ends and D or L forms follow the SMILES beside them. No end group written: not given here. CO = O=C([*:1])[*:2]

Chain of recombinant human ACE-1 (P12821 30-1306): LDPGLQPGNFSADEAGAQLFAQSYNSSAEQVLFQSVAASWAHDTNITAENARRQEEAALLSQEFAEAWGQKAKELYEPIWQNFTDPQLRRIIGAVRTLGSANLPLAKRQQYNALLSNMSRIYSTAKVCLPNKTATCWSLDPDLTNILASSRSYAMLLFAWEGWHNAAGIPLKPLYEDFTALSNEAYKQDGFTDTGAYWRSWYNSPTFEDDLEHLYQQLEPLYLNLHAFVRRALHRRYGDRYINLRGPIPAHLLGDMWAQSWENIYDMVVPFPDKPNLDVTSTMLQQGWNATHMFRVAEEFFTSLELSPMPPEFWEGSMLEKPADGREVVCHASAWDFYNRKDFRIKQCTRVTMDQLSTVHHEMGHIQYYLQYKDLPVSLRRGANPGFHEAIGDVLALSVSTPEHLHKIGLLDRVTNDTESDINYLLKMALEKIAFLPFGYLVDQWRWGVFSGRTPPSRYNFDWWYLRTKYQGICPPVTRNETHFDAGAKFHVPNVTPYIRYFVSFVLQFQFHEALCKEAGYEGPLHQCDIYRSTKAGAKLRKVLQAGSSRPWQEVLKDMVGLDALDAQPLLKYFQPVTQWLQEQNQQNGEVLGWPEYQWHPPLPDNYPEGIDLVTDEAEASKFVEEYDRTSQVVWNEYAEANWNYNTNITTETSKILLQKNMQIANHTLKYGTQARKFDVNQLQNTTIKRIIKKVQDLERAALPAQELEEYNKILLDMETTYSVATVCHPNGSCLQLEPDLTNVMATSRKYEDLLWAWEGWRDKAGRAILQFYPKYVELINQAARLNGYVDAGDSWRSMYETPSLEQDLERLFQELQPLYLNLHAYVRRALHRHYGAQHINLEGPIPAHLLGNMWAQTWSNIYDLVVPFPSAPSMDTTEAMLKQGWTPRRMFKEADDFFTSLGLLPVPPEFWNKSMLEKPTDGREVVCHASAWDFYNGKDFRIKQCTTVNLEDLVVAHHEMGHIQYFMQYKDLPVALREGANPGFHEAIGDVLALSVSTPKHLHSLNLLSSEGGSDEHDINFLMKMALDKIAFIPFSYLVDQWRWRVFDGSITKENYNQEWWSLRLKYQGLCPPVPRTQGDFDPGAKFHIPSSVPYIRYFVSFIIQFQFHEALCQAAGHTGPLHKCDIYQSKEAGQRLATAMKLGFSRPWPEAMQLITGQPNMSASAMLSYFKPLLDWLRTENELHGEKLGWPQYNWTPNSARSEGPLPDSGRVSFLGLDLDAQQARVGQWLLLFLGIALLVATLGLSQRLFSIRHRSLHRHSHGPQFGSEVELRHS
Chain of recombinant human aminopeptidase N (APN) (Homo sapiens, UniProt P15144) (P15144 whole entry): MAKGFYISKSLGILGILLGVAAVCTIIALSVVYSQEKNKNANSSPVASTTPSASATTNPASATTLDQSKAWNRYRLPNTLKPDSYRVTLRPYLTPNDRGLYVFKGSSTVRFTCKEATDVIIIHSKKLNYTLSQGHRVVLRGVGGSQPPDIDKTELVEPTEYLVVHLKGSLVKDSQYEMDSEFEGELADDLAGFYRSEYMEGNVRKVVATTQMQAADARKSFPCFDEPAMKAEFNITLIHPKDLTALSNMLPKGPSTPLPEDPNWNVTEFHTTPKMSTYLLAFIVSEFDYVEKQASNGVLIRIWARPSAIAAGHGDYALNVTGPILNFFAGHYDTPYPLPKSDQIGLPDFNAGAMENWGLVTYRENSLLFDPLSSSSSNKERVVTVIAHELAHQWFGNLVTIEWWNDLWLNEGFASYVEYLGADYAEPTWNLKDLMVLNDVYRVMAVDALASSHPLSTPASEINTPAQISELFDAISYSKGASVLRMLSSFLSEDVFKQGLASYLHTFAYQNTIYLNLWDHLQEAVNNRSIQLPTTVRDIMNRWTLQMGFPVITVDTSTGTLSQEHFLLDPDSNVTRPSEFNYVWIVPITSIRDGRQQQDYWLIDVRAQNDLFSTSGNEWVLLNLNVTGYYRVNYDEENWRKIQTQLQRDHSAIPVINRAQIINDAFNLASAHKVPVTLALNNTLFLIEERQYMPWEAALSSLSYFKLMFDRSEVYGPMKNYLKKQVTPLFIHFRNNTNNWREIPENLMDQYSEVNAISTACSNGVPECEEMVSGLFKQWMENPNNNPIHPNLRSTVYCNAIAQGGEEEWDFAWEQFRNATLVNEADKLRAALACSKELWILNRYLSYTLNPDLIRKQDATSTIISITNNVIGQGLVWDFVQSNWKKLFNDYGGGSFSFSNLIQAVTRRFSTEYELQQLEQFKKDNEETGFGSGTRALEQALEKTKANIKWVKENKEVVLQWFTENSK

For `CC(C)C[C@H](NC(=O)[C@@H](O)[C@H](N)Cc1ccccc1)C(=O)O` [Bestatin], the “Change of ANG-6-10-generating activity in the presence of inhibitor” value in series [1] (setting [11]) is given as 0.76±0.14. In addition, the “Change of ANG-3-10-generating activity in the presence of inhibitor” value in series [1] (setting [12]) was “Higher amounts”.

With YIHPFHL [ANG-4-10], in [2], the “Cleavage products generated from the substrate by recombinant aminopeptidase N (APN)” value (“Cleavage products generated” below) is given as “IHPFHL; also recorded: HPFHL”. The “Reaction product generated by recombinant ACE-1” value (“Reaction product generated” for short) at recombinant human ACE-1 was “ANG-4-8”.

As for `NCCc1ccc(S(=O)(=O)F)cc1` [AEBSF], the “Change of ANG-3-10-generating activity in the presence of inhibitor” value in [1] (setting [12]) is given as “inhibited”.

Turning to IHPFHL [ANG-5-10], in series [2], the “Cleavage products generated” value is “HPFHL”. Besides, the “Reaction product generated” value at recombinant human ACE-1 is recorded as “ANG-5-8”. In [3] (setting [13]), the “Reaction products generated from the substrate by immobilized human plasma proteins” value is recorded as “ANG-6-10”.

For `C[C@H](CS)C(=O)N1CCC[C@H]1C(=O)O` [Captopril], the “Change of ANG-6-10-generating activity in the presence of inhibitor” value in [1] (setting [11]) was 0.98±0.32.

For VYIHPFHL [ANG-3-10], the “Cleavage products generated” value in series [2] is given as “YIHPFHL; also recorded: HPFHL”. Also, on recombinant human ACE-1, the “Reaction product generated” value is reported as “ANG-3-8”. Also, in [3] (setting [13]), the “Reaction products generated from the substrate by immobilized human plasma proteins” value was “ANG-4-10, ANG-5-10 and ANG-6-10”.

For DRVYIHPFHL [ANG-1-10, angiotensin I], in [3], the “Reaction products generated from the substrate by immobilized human plasma proteins” value was “A-1-9, ANG-1-8, ANG-1-7, ANG-2-10, ANG-3-10, ANG-4-10, ANG-5-10 and ANG-6-10”. The “Reaction products generated from the substrate by non-immobilized human plasma proteins” value in series [4] is “A-1-9, ANG-1-8, ANG-1-7, ANG-2-10, ANG-3-10, ANG-4-10, ANG-5-10 and ANG-6-10”. Moreover, in [5], the “Only reaction products left after 8 h of incubation, mouse plasma” value is reported as “ANG-1-8” and the “Reaction products generated from the substrate by immobilized mouse plasma proteins” value is “ANG-1-8 (m/z 1046.5), ANG-1-7 (m/z 899.5), ANG-2-10 (m/z 1181.7), ANG-3-10 (m/z 1025.6), ANG-4-10 (m/z 926.5), ANG-5-10 (m/z 763.4)”. Further, in series [6], the “Only reaction products left after 8 h of incubation, rat plasma” value is “ANG-1-7, ANG-1-8 and ANG-5-10”; the “Reaction products generated from the substrate by immobilized rat plasma proteins” value is recorded as “ANG-1-8 (m/z 1046.5), ANG-1-7 (m/z 899.5), ANG-2-10 (m/z 1181.7), ANG-3-10 (m/z 1025.6), ANG-4-10 (m/z 926.5), ANG-5-10 (m/z 763.4)”.

As for IHPFHL, the fragment found entry in series [7] and in series [9] was “ANG-6-10” each time. In addition, the cleaved bond entry in series [8] is reported as “F8-His9”.

Regarding VYIHPFHL, the fragment found entry in series [7] is reported as “ANG-4-10; also recorded: ANG-5-10; also recorded: ANG-6-10”; in [9] it was “ANG-4-10, 1 h; also recorded: ANG-6-10, 1 h”. Moreover, in series [8], the cleaved bond result is listed as “F8-His9”.

For the compound “RVYIHPF [ANG-2-8, angiotensin peptide also known as AIII]”, the “Cross reactivity with the anti ANG-1-10 antibody” value in series [10] is reported as “no cross reactivity”.

Consider YIHPFHL, for which the fragment found entry is reported as “ANG-5-10; also recorded: ANG-6-10” in series [7] and “ANG-5-10, 1 h; also recorded: ANG-6-10, 1 h” in [9]. Further, the cleaved bond result in series [8] is given as “F8-His9”.

As for HPFHL, the not cleaved result in series [9] is given as “not further degraded by APN within 24 h”.

As to `O=C(O)CN(CCN(CC(=O)O)CC(=O)O)CC(=O)O` [EDTA], the “Change of ANG-3-10-generating activity in the presence of inhibitor” value in series [1] (setting [12]) was 3.4±0.8.

For the compound `CC[C@H](C)[C@H](NC(=O)[C@H](Cc1ccc(O)cc1)NC(=O)[C@@H](NC(=O)[C@H](CCCNC(=N)N)NC(=O)[C@@H](N)CC(=O)O)C(C)C)C(=O)N[C@@H](Cc1cnc[nH]1)C(=O)N1CCC[C@H]1C(=O)N[C@@H](Cc1ccccc1)C(=O)O` [ANG-1-8, angiotensin II], the “Cleavage products generated” value in series [2] is “none”.

Take `CC(C)C[C@H](NC(=O)[C@@H](NC(=O)N[C@@H](Cc1ccccc1)C(=O)O)[C@@H]1CCN=C(N)N1)C(=O)N[C@H](C=O)Cc1ccccc1` [Chymostatin]: in series [1], the “Change of ANG-6-10-generating activity in the presence of inhibitor” value is reported as 1.30±0.14.

Consider RVYIHPFHL, for which the fragment found entry is “ANG-2-8” in “rat blood”; “ANG-3-10; also recorded: ANG-4-10; also recorded: ANG-5-10; also recorded: ANG-6-10; also recorded: ANG-2-8, 8 h; also recorded: ANG-3-8, 8 h; also recorded: ANG-4-8, 8 h” in series [7]; “ANG-3-10, 1 h; also recorded: ANG-4-10, 1 h; also recorded: ANG-5-10, 4 h; also recorded: ANG-6-10, 8 h” in series [9]. Further, in series [8], the cleaved bond entry is reported as “F8-His9”.

RVYIHPFHL [ANG-2-10]: the “Cleavage products generated” value in [2] is reported as “VYIHPFHL; also recorded: YIHPFHL; also recorded: IHPFHL; also recorded: HPFHL”. Moreover, at recombinant human ACE-1, the “Reaction product generated” value is “ANG-2-8”. The “Further reaction products detected by MALDI-MS after 8 h of incubation” value in series [3] (substrate 10^−5 M, immobilized human plasma proteins, 37°C, MALDI-MS after 8 h) was “ANG-2-8 (m/z 931.5), ANG-3-8 (m/z 775.4) and ANG-4-8 (m/z 676.3)”. The “Reaction products generated from the substrate by immobilized human plasma proteins” value in series [3] (setting [13]) was “ANG-3-10, ANG-4-10, ANG-5-10 and ANG-6-10”.

As for HPFHL [ANG-6-10], the “Stability towards APN” value in series [2] (within 24 h of incubation with recombinant APN, MALDI-MS) is on record as “not further degraded”. For the same compound, the “Reaction product generated” value on recombinant human ACE-1 is on record as “no cleavage product was observed”.

Take RVYIHPF: the cleaved bond result with APN was “Arg2-Val3”.

`CC(C)[C@H](NC(=O)[C@H](CCCNC(=N)N)NC(=O)N[C@@H](Cc1ccccc1)C(=O)O)C(=O)N[C@H](C=O)CCCNC(=N)N` [Antipain] ({Phe-CO}-Arg-Val-Arg-aldehyde): in series [1], the “Change of ANG-6-10-generating activity in the presence of inhibitor” value was “slightly inhibited”. In series [1] (ANG-1-10 10^−5 M, immobilized human plasma proteins, 50 µM antipain, 150 µM bestatin, 100 µM EDTA, SRM-MS after 6 h, mean ± SEM, n = 3), the “Change of ANG-2-10-generating activity in the presence of inhibitor” value is reported as −0.12±0.023. Also, in [1] (ANG-1-10 10^−5 M, immobilized human plasma proteins, 50 µM antipain, SRM-MS after 6 h, mean ± SEM, n = 3), the “Change of ANG-4-10-generating activity in the presence of inhibitor” value is on record as -0.21±0.05. In addition, the “Change of ANG-3-10-generating activity in the presence of inhibitor” value in series [1] (setting [12]) was “inhibited”.
